# Experimental data taken from patent publication US10800772B2 (Gilead Sciences, Inc., priority 2016, dated 2020).
# Read-outs that look alike come from different tables or passages of the source.
# Legend:
# Format in all cases: cell-based, HIV-1
# HIV-IIIb (wildtype) = experiment: Antiviral assay in MT4 cells, HIV-IIIb wildtype; conditions: read-out: WT EC50
# How it was run: (§1)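 Each EC50 is the compound concentration that reduced CellTiter-Glo luminescence by 50% after 5 days of culture of HIV-IIIb-infected MT4 cells. Infection was at 0.004 m.o.i. with 3 h pre-incubation. Testing used 10 concentrations in quadruplicate.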
# HIV-IIIb IN T174I BT = experiment: Antiviral assay in MT4 cells, HIV-IIIb IN T174I BT virus (from viral breakthrough); conditions: Human immunodeficiency virus 1, IIIB, MT4, 120 h, read-out: T174I BT EC50, MT4 cells, HIV-IIIb IN T174I BT (viral breakthrough), 5 days, CellTiter-Glo
# How it was run: as §1
# HIV-IIIb IN T174I DE = experiment: Antiviral assay in MT4 cells, HIV-IIIb IN T174I DE virus (from dose escalation passaging); conditions: Human immunodeficiency virus 1, IIIB, MT4, 120 h, read-out: T174I DE EC50, MT4 cells, HIV-IIIb IN T174I DE (dose escalation), 5 days, CellTiter-Glo
# How it was run: as §1
# [1] = Human immunodeficiency virus 1, IIIB, MT4, 120 h
SMILES,EC50 (HIV-IIIb (wildtype); [1]) [µM],EC50 (HIV-IIIb IN T174I BT) [µM],EC50 (HIV-IIIb IN T174I DE) [µM],"EC50 (HIV-IIIb (wildtype); Human immunodeficiency virus 1, 120 h, MT4 cells, HIV-IIIb wildtype, 5 days, CellTiter-Glo) [µM]"
"Cc1cc2nc(-c3ccc4c(c3)c(N3CC5(CN(C)C5)C3)nn4C)sc2c(-c2ccc(Cl)cc2)c1[C@H](OC(C)(C)C)C(=O)O [Compound 89, (S)-2-(tert-butoxy)-2-(7-(4-chlorophenyl)-5-methyl-2-(1-methyl-3-(6-methyl-2,6-diazaspiro[3.3]heptan-2-yl)-1H-indazol-5-yl)benzo[d]thiazol-6-yl)acetic acid]",0.107,57,57,–
"Cc1cc2nc(-c3ccc4c(c3)c(N3CC(N(C)C)C3)nn4C)sc2c(-c2ccc(Cl)cc2)c1[C@H](OC(C)(C)C)C(=O)O [Compound 90, (S)-2-(tert-butoxy)-2-(7-(4-chlorophenyl)-2-(3-(3-(dimethylamino)azetidin-1-yl)-1-methyl-1H-indazol-5-yl)-5-methylbenzo[d]thiazol-6-yl)acetic Acid]",0.008,1.18,1.35,–
"Cc1cc2nc(-c3ccc4c(c3)c(N3CC5(COC5)C3)nn4C)sc2c(-c2ccc(Cl)cc2)c1[C@H](OC(C)(C)C)C(=O)O [Compound 91, (S)-2-(tert-butoxy)-2-(7-(4-chlorophenyl)-5-methyl-2-(1-methyl-3-(2-oxa-6-azaspiro[3.3]heptan-6-yl)-1H-indazol-5-yl)benzo[d]thiazol-6-yl)acetic acid]",0.011,1.72,2.44,–
"Cc1cc2nc(-c3ccc4c(c3)c(N3CC[C@H](N(C)C)C3)nn4C)sc2c(-c2ccc(Cl)cc2)c1[C@H](OC(C)(C)C)C(=O)O [Compound 93, (S)-2-(tert-butoxy)-2-(7-(4-chlorophenyl)-2-(3-((S)-3-(dimethylamino)pyrrolidin-1-yl)-1-methyl-1H-indazol-5-yl)-5-methylbenzo[d]thiazol-6-yl)acetic acid]",0.013,1.01,3.45,–
"CN[C@H]1CCN(c2nn(C)c3ccc(-c4nc5cc(C)c([C@H](OC(C)(C)C)C(=O)O)c(-c6ccc(Cl)cc6)c5s4)cc23)C1 [Compound 94, (S)-2-(tert-butoxy)-2-(7-(4-chlorophenyl)-5-methyl-2-(1-methyl-3-((S)-3-(methylamino)pyrrolidin-1-yl)-1H-indazol-5-yl)benzo[d]thiazol-6-yl)acetic acid]",0.038,2.72,2.52,–
"CN[C@@H]1CCN(c2nn(C)c3ccc(-c4nc5cc(C)c([C@H](OC(C)(C)C)C(=O)O)c(-c6ccc(Cl)cc6)c5s4)cc23)C1 [Compound 95, (S)-2-(tert-butoxy)-2-(7-(4-chlorophenyl)-5-methyl-2-(1-methyl-3-((R)-3-(methylamino)pyrrolidin-1-yl)-1H-indazol-5-yl)benzo[d]thiazol-6-yl)acetic acid]",0.041,1.75,11.5,–
"Cc1cc2nc(-c3ccc4c(c3)c(N3CC5(CCCCC5)C3)nn4C)sc2c(-c2ccc(Cl)cc2)c1[C@H](OC(C)(C)C)C(=O)O [Compound 97, (S)-2-(tert-butoxy)-2-(7-(4-chlorophenyl)-5-methyl-2-(1-methyl-3-(2-azaspiro[3.5]nonan-2-yl)-1H-indazol-5-yl)benzo[d]thiazol-6-yl)acetic acid]",0.15,6.81,9.19,–
"Cc1cc2nc(-c3ccc4c(c3)c(N3CC5CC(C3)N5C)nn4C)sc2c(-c2ccc(Cl)cc2)c1[C@H](OC(C)(C)C)C(=O)O [Compound 101, (2S)-2-(tert-butoxy)-2-(7-(4-chlorophenyl)-5-methyl-2-(1-methyl-3-(6-methyl-3,6-diazabicyclo[3.1.1]heptan-3-yl)-1H-indazol-5-yl)benzo[d]thiazol-6-yl)acetic Acid]",–,57,57,0.058
"COC(=O)N(C)C1CN(c2nn(C)c3ccc(-c4nc5cc(C)c([C@H](OC(C)(C)C)C(=O)O)c(-c6ccc(Cl)cc6)c5s4)cc23)C1 [Compound 102, (S)-2-(tert-butoxy)-2-(7-(4-chlorophenyl)-2-(3-(3-((methoxycarbonyl)(methyl)amino)azetidin-1-yl)-1-methyl-1H-indazol-5-yl)-5-methylbenzo[d]thiazol-6-yl)acetic acid]",0.013,0.934,1.27,–
"Cc1cc2nc(-c3ccc4c(c3)c(N3CCN(C5COC5)CC3)nn4C)sc2c(-c2ccc(Cl)cc2)c1[C@H](OC(C)(C)C)C(=O)O [Compound 104, (S)-2-(tert-butoxy)-2-(7-(4-chlorophenyl)-5-methyl-2-(1-methyl-3-(4-(oxetan-3-yl)piperazin-1-yl)-1H-indazol-5-yl)benzo[d]thiazol-6-yl)acetic acid]",0.011,0.491,0.904,–
"Cc1cc2nc(-c3cnc4c(c3)c(C3=CCN(C)CC3)cn4C)sc2c(-c2ccc(Cl)cc2)c1[C@H](OC(C)(C)C)C(=O)O [Compound 105, (S)-2-(tert-butoxy)-2-(7-(4-chlorophenyl)-5-methyl-2-(1-methyl-3-(1-methyl-1,2,3,6-tetrahydropyridin-4-yl)-1H-pyrrolo[2,3-b]pyridin-5-yl)benzo[d]thiazol-6-yl)acetic acid]",0.035,1.46,2.29,–
"Cc1cc2nc(-c3cnc4c(c3)c(C3CCN(C)CC3)cn4C)sc2c(-c2ccc(Cl)cc2)c1[C@H](OC(C)(C)C)C(=O)O [Compound 106, (S)-2-(tert-butoxy)-2-(7-(4-chlorophenyl)-5-methyl-2-(1-methyl-3-(1-methylpiperidin-4-yl)-1H-pyrrolo[2,3-b]pyridin-5-yl)benzo[d]thiazol-6-yl)acetic acid]",0.029,0.864,3.08,–
"Cc1cc2nc(-c3cnc4c(c3)c(N3CCN(C)CC3)cn4C)sc2c(-c2ccc(Cl)cc2)c1[C@H](OC(C)(C)C)C(=O)O [Compound 107, (S)-2-(tert-butoxy)-2-(7-(4-chlorophenyl)-5-methyl-2-(1-methyl-3-(4-methylpiperazin-1-yl)-1H-pyrrolo[2,3-b]pyridin-5-yl)benzo[d]thiazol-6-yl)acetic acid]",0.023,1.11,2.37,–
"Cc1cc2nc(-c3ccn4ncc(C5CCN(C6COC6)CC5)c4n3)sc2c(-c2ccc(Cl)cc2)c1[C@H](OC(C)(C)C)C(=O)O [Compound 109, (S)-2-(tert-butoxy)-2-(7-(4-chlorophenyl)-5-methyl-2-(3-(1-(oxetan-3-yl)piperidin-4-yl)pyrazolo[1,5-a]pyrimidin-5-yl)benzo[d]thiazol-6-yl)acetic acid]",0.003,0.205,0.614,–
"COC(=O)N1CC(N2CCC(c3cnn4ccc(-c5nc6cc(C)c([C@H](OC(C)(C)C)C(=O)O)c(-c7ccc(Cl)cc7)c6s5)nc34)CC2)C1 [Compound 110, (S)-2-(tert-butoxy)-2-(7-(4-chlorophenyl)-2-(3-(1-(1-(methoxycarbonyl)azetidin-3-yl)piperidin-4-yl)pyrazolo[1,5-a]pyrimidin-5-yl)-5-methylbenzo[d]thiazol-6-yl)acetic acid]",0.002,0.198,0.559,–
"Cc1cc2nc(-c3cnc4c(c3)c(N3CCN(C(C)C)CC3)nn4C)sc2c(-c2ccc(Cl)cc2)c1[C@H](OC(C)(C)C)C(=O)O [Compound 111, (S)-2-(tert-butoxy)-2-(7-(4-chlorophenyl)-2-(3-(4-isopropylpiperazin-1-yl)-1-methyl-1H-pyrazolo[3,4-b]pyridin-5-yl)-5-methylbenzo[d]thiazol-6-yl)acetic acid]",0.005,1.15,2.88,–
"Cc1cc2nc(-c3cnc4c(c3)c(N3CCN(C5COC5)CC3)nn4C)sc2c(-c2ccc(Cl)cc2)c1[C@H](OC(C)(C)C)C(=O)O [Compound 112, (S)-2-(tert-butoxy)-2-(7-(4-chlorophenyl)-5-methyl-2-(1-methyl-3-(4-(oxetan-3-yl)piperazin-1-yl)-1H-pyrazolo[3,4-b]pyridin-5-yl)benzo[d]thiazol-6-yl)acetic Acid]",0.01,1.25,2.11,–
"Cc1cc2nc(-c3cnc4c(c3)c(C3CCN(C5COC5)CC3)nn4C)sc2c(-c2ccc(Cl)cc2)c1[C@H](OC(C)(C)C)C(=O)O [Compound 113, (S)-2-(tert-butoxy)-2-(7-(4-chlorophenyl)-5-methyl-2-(1-methyl-3-(1-(oxetan-3-yl)piperidin-4-yl)-1H-pyrazolo[3,4-b]pyridin-5-yl)benzo[d]thiazol-6-yl)acetic acid]",0.005,0.871,1.52,–
"COC(=O)N1CC(N2CCC(c3nn(C)c4ncc(-c5nc6cc(C)c([C@H](OC(C)(C)C)C(=O)O)c(-c7ccc(Cl)cc7)c6s5)cc34)CC2)C1 [Compound 114, (S)-2-(tert-butoxy)-2-(7-(4-chlorophenyl)-2-(3-(1-(1-(methoxycarbonyl)azetidin-3-yl)piperidin-4-yl)-1-methyl-1H-pyrazolo[3,4-b]pyridin-5-yl)-5-methylbenzo[d]thiazol-6-yl)acetic acid]",0.012,1.08,2.2,–
"CCOC(=O)N1CC(N2CCC(c3nn(C)c4ncc(-c5nc6cc(C)c([C@H](OC(C)(C)C)C(=O)O)c(-c7ccc(Cl)cc7)c6s5)cc34)CC2)C1 [Compound 115, (S)-2-(tert-butoxy)-2-(7-(4-chlorophenyl)-2-(3-(1-(1-(ethoxycarbonyl)azetidin-3-yl)piperidin-4-yl)-1-methyl-1H-pyrazolo[3,4-b]pyridin-5-yl)-5-methylbenzo[d]thiazol-6-yl)acetic acid]",0.014,1.6,2.45,–
